Experimental data: the kinase profiling compilation of Christmann-Franck et al. (2016)

Key:
Experiment in all cases: KINOMEscan competition binding
Settings in all cases: compound 10.0 µM
AURKA (human) = AURKA (human) (UniProt O14965)
BLK (human) = BLK (human) (UniProt P51451)
BRSK1 (human) = BRSK1 (human) (UniProt Q8TDC3)
CDK14 (human) = CDK14 (human) (UniProt O94921)
CDK19 (human) = CDK19 (human) (UniProt Q9BWU1)
CDK3 (human) = CDK3 (human) (UniProt Q00526)
CSF1R (human) = CSF1R (human) (UniProt P07333)
CSNK1E (human) = CSNK1E (human) (UniProt P49674)
EPHA7 (human) = EPHA7 (human) (UniProt Q15375)
FGFR4 (human) = FGFR4 (human) (UniProt P22455)
GSK3B (human) = GSK3B (human) (UniProt P49841)
HIPK1 (human) = HIPK1 (human) (UniProt Q86Z02)
[1] = target: JAK1 JH2 pseudokinase (human) (UniProt P23458)
LATS1 (human) = LATS1 (human) (UniProt O95835)
MAP3K12 (human) = MAP3K12 (human) (UniProt Q12852)
MAPK7 (human) = MAPK7 (human) (UniProt Q13164)
MARK1 (human) = MARK1 (human) (UniProt Q9P0L2)
MARK4 (human) = MARK4 (human) (UniProt Q96L34)
MYLK4 (human) = MYLK4 (human) (UniProt Q86YV6)
PIK3CB (human) = PIK3CB (human) (UniProt P42338)
PIM3 (human) = PIM3 (human) (UniProt Q86V86)
PKN1 (human) = PKN1 (human) (UniProt Q16512)
PKN2 (human) = PKN2 (human) (UniProt Q16513)
PLK3 (human) = PLK3 (human) (UniProt Q9H4B4)
PTK2 (human) = PTK2 (human) (UniProt Q05397)
PTK2B (human) = PTK2B (human) (UniProt Q14289)
RET (human) = RET (human) (UniProt P07949)
RIOK1 (human) = RIOK1 (human) (UniProt Q9BRS2)
RIPK1 (human) = RIPK1 (human) (UniProt Q13546)
RIPK4 (human) = RIPK4 (human) (UniProt P57078)
RPS6KA2 KD1 (human) = RPS6KA2 KD1 (human) (UniProt Q15349)
RPS6KA2 KD2 (human) = RPS6KA2 KD2 (human) (UniProt Q15349)
SRC (human) = SRC (human) (UniProt P12931)
STK16 (human) = STK16 (human) (UniProt O75716)
STK24 (human) = STK24 (human) (UniProt Q9Y6E0)
STK25 (human) = STK25 (human) (UniProt O00506)
STK36 (human) = STK36 (human) (UniProt Q9NRP7)
SYK (human) = SYK (human) (UniProt P43405)
TAOK1 (human) = TAOK1 (human) (UniProt Q7L7X3)
TXK (human) = TXK (human) (UniProt P42681)

Sequence of AURKA (human) (O14965 whole entry, looked up): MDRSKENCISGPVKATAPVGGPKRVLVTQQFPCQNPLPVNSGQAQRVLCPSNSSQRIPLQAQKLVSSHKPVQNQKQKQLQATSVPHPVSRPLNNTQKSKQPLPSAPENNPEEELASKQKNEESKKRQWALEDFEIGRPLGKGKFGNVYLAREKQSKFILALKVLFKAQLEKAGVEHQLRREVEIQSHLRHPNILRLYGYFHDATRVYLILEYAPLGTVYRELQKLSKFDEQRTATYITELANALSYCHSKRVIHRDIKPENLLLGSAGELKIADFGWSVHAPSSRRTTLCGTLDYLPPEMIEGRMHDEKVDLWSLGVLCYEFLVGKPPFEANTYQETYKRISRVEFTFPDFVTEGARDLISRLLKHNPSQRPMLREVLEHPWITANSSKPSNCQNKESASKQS
Sequence of PTK2 (human) (Q05397 whole entry, looked up): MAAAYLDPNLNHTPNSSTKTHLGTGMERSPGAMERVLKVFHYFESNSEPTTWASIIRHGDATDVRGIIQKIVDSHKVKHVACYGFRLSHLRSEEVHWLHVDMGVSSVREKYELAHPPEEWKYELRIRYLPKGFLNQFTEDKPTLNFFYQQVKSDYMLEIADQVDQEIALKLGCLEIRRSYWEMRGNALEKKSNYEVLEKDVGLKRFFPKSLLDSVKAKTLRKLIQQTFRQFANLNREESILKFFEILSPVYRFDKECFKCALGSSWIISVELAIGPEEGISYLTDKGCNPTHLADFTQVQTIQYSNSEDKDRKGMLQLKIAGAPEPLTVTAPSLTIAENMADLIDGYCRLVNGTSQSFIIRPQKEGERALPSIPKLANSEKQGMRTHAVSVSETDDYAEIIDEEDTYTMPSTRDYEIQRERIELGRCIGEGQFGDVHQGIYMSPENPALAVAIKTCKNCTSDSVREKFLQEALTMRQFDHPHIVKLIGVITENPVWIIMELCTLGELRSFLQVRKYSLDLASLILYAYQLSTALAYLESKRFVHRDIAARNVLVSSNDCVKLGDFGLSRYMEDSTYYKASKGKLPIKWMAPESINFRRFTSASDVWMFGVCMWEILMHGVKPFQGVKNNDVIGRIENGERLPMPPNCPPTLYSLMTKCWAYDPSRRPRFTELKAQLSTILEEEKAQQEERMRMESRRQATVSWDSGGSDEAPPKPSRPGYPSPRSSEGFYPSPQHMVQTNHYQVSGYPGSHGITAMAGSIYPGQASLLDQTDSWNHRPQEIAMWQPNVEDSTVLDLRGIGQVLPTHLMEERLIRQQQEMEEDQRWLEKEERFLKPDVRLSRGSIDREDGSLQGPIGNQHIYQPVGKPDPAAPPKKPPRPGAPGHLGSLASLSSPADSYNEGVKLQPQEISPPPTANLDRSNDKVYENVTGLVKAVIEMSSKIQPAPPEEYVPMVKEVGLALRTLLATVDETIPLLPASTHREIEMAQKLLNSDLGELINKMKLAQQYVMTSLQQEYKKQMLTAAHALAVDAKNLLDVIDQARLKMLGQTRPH
Sequence of STK24 (human) (Q9Y6E0 whole entry, looked up): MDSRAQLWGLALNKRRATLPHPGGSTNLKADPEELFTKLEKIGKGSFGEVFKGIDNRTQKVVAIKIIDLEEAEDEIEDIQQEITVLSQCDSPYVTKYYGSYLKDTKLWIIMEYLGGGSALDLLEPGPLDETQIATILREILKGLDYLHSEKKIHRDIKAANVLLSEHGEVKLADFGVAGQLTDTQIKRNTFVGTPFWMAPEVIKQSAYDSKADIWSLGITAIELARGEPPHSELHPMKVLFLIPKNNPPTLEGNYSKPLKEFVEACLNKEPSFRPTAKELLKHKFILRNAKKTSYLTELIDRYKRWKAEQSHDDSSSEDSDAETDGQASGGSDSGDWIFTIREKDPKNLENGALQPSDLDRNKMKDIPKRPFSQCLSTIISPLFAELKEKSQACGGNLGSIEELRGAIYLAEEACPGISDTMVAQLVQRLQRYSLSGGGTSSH
Sequence of MAPK7 (human) (Q13164 whole entry, looked up): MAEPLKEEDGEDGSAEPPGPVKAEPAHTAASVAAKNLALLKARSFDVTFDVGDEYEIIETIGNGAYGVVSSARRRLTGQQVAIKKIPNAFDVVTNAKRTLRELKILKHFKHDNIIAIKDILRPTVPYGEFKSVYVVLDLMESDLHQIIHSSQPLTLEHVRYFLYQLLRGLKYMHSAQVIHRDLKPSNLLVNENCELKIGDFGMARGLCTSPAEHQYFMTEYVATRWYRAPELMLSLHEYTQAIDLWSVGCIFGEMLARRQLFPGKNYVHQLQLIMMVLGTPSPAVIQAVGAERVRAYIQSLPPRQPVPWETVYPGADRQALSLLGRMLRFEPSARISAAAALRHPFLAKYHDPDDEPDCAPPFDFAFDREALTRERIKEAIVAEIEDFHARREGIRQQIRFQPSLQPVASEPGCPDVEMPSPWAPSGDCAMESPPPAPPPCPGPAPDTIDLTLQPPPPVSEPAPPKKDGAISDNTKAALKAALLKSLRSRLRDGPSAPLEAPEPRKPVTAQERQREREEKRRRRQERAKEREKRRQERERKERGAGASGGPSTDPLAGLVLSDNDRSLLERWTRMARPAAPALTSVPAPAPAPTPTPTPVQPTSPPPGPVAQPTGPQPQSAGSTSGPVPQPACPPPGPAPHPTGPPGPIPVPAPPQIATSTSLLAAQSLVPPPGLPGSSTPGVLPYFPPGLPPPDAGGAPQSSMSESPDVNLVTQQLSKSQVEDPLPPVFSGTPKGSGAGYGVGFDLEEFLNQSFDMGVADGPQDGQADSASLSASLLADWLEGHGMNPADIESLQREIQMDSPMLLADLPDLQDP
Sequence of RET (human) (P07949 whole entry, looked up): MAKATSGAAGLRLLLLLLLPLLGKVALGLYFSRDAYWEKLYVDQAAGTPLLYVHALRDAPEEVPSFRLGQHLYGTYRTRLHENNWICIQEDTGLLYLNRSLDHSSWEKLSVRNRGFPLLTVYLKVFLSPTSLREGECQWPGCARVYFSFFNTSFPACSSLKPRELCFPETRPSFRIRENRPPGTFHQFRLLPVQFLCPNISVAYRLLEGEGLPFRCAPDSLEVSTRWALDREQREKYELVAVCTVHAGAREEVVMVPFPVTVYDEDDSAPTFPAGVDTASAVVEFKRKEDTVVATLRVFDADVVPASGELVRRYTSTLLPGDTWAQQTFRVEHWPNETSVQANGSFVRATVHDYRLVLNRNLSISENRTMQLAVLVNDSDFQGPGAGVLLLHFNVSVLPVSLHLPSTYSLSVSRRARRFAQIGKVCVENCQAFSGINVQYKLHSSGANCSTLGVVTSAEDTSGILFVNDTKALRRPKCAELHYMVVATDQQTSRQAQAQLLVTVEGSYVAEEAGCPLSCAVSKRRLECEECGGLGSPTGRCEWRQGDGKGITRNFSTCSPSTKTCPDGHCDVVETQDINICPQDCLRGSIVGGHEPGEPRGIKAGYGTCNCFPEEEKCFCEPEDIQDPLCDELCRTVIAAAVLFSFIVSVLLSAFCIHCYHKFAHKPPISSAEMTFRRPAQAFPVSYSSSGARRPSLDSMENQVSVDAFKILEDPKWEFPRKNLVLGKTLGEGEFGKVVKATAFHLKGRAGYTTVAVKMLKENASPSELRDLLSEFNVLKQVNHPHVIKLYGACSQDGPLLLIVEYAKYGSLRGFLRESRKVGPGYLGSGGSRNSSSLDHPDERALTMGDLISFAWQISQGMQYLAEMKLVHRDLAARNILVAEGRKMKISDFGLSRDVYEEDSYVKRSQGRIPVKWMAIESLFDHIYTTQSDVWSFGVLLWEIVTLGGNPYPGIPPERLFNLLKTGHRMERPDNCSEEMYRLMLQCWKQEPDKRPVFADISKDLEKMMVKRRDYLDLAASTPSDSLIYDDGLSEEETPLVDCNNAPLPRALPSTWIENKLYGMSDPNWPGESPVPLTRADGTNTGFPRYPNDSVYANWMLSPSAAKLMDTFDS
Sequence of BRSK1 (human) (Q8TDC3 whole entry, looked up): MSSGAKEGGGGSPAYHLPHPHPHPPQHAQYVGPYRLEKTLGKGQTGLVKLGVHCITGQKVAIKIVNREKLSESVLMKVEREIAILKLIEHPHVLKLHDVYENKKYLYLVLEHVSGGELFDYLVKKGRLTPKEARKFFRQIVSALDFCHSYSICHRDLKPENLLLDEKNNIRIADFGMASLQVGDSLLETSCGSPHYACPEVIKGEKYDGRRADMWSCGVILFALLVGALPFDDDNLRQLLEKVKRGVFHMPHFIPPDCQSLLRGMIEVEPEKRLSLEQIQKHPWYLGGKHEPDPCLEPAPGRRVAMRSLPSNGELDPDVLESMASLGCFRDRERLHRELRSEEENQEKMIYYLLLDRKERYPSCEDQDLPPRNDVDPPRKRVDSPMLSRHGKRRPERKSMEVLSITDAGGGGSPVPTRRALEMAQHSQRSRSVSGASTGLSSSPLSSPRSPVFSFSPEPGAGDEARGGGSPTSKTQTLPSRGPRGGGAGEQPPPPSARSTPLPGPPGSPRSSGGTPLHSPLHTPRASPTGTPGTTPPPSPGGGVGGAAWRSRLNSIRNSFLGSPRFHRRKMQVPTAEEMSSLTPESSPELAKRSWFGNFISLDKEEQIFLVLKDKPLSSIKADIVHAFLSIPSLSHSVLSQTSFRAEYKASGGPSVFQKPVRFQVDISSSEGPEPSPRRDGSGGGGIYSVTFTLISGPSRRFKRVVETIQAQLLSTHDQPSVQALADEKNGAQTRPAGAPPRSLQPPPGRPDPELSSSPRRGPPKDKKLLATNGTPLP
Sequence of MYLK4 (human) (Q86YV6 whole entry, looked up): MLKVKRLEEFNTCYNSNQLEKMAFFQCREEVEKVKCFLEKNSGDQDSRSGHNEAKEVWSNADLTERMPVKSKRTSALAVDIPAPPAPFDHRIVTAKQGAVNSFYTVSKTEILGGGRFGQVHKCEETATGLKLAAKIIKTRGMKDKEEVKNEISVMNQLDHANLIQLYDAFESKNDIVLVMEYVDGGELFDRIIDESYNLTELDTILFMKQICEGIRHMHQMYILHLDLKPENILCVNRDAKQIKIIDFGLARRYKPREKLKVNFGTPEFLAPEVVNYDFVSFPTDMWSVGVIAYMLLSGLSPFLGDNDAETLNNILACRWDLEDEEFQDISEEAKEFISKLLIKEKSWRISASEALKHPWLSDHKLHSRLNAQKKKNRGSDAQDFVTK

kinase still bound, per cent of control (AURKA (human)) [%] | kinase still bound, per cent of control (BLK (human)) [%] | kinase still bound, per cent of control (BRSK1 (human)) [%] | kinase still bound, per cent of control (CDK14 (human)) [%] | kinase still bound, per cent of control (CDK19 (human)) [%] | kinase still bound, per cent of control (CDK3 (human)) [%] | kinase still bound, per cent of control (CSF1R (human)) [%] | kinase still bound, per cent of control (CSNK1E (human)) [%] | kinase still bound, per cent of control (EPHA7 (human)) [%] | kinase still bound, per cent of control (FGFR4 (human)) [%] | kinase still bound, per cent of control (GSK3B (human)) [%] | kinase still bound, per cent of control (HIPK1 (human)) [%] | kinase still bound, per cent of control [1] [%] | kinase still bound, per cent of control (LATS1 (human)) [%] | kinase still bound, per cent of control (MAP3K12 (human)) [%] | kinase still bound, per cent of control (MAPK7 (human)) [%] | kinase still bound, per cent of control (MARK1 (human)) [%] | kinase still bound, per cent of control (MARK4 (human)) [%] | kinase still bound, per cent of control (MYLK4 (human)) [%] | kinase still bound, per cent of control (PIM3 (human)) [%] | Structure (SMILES) | other results
100 | 100 | 100 | 100 | 25 | 100 | 1.4 | 100 | 100 | 100 | 100 | 100 | 100 | 100 | 100 | 100 | 100 | 100 | 100 | 100 | Cc1ccc(C(=O)Nc2cccc(C(F)(F)F)c2)cc1Nc1cncc(C(N)=O)c1 | kinase still bound, per cent of control (PIK3CB (human)): 100%; kinase still bound, per cent of control (PKN1 (human)): 100%; kinase still bound, per cent of control (PKN2 (human)): 100%; kinase still bound, per cent of control (PLK3 (human)): 100%; kinase still bound, per cent of control (PTK2 (human)): 100%; kinase still bound, per cent of control (PTK2B (human)): 100%; kinase still bound, per cent of control (RET (human)): 100%; kinase still bound, per cent of control (RIOK1 (human)): 100%; kinase still bound, per cent of control (RIPK1 (human)): 100%; kinase still bound, per cent of control (RIPK4 (human)): 100%; kinase still bound, per cent of control (RPS6KA2 KD1 (human)): 100%; kinase still bound, per cent of control (RPS6KA2 KD2 (human)): 100%; kinase still bound, per cent of control (SRC (human)): 100%; kinase still bound, per cent of control (STK16 (human)): 100%; kinase still bound, per cent of control (STK24 (human)): 100%; kinase still bound, per cent of control (STK25 (human)): 100%; kinase still bound, per cent of control (STK36 (human)): 100%; kinase still bound, per cent of control (SYK (human)): 100%; kinase still bound, per cent of control (TAOK1 (human)): 100%; kinase still bound, per cent of control (TXK (human)): 100%
100 | 100 | 100 | 100 | 100 | 100 | 100 | 100 | 100 | 100 | 100 | 100 | 100 | 100 | 100 | 100 | 100 | 0 | 100 | 100 | COc1cc(C(=O)NC2CCN(C)CC2)ccc1Nc1ncc2c(n1)N(C1CCCC1)CCC(=O)N2C(C)C | kinase still bound, per cent of control (PIK3CB (human)): 100%; kinase still bound, per cent of control (PKN1 (human)): 100%; kinase still bound, per cent of control (PKN2 (human)): 100%; kinase still bound, per cent of control (PLK3 (human)): 100%; kinase still bound, per cent of control (PTK2 (human)): 100%; kinase still bound, per cent of control (PTK2B (human)): 100%; kinase still bound, per cent of control (RET (human)): 100%; kinase still bound, per cent of control (RIOK1 (human)): 100%; kinase still bound, per cent of control (RIPK1 (human)): 100%; kinase still bound, per cent of control (RIPK4 (human)): 100%; kinase still bound, per cent of control (RPS6KA2 KD1 (human)): 100%; kinase still bound, per cent of control (RPS6KA2 KD2 (human)): 100%; kinase still bound, per cent of control (SRC (human)): 100%; kinase still bound, per cent of control (STK16 (human)): 100%; kinase still bound, per cent of control (STK24 (human)): 100%; kinase still bound, per cent of control (STK25 (human)): 100%; kinase still bound, per cent of control (STK36 (human)): 100%; kinase still bound, per cent of control (SYK (human)): 100%; kinase still bound, per cent of control (TAOK1 (human)): 100%; kinase still bound, per cent of control (TXK (human)): 100%

Structure (SMILES) | kinase still bound, per cent of control (AURKA (human)) [%] | kinase still bound, per cent of control (BLK (human)) [%] | kinase still bound, per cent of control (BRSK1 (human)) [%] | kinase still bound, per cent of control (CDK14 (human)) [%] | kinase still bound, per cent of control (CDK19 (human)) [%] | kinase still bound, per cent of control (CDK3 (human)) [%] | kinase still bound, per cent of control (CSF1R (human)) [%] | kinase still bound, per cent of control (CSNK1E (human)) [%] | kinase still bound, per cent of control (EPHA7 (human)) [%] | kinase still bound, per cent of control (FGFR4 (human)) [%] | kinase still bound, per cent of control (GSK3B (human)) [%] | kinase still bound, per cent of control (HIPK1 (human)) [%] | kinase still bound, per cent of control [1] [%] | kinase still bound, per cent of control (LATS1 (human)) [%] | kinase still bound, per cent of control (MAP3K12 (human)) [%] | kinase still bound, per cent of control (MAPK7 (human)) [%] | kinase still bound, per cent of control (MARK1 (human)) [%] | kinase still bound, per cent of control (MARK4 (human)) [%] | kinase still bound, per cent of control (MYLK4 (human)) [%] | kinase still bound, per cent of control (PIM3 (human)) [%] | other results
Cc1cc([C@@H](C)Nc2ccccc2C(=O)O)c2nc(N3CCOCC3)cc(=O)n2c1 | 100 | 99 | 99 | 100 | 91 | 100 | 94 | 98 | 89 | 100 | 100 | 100 | 100 | 100 | 85 | 100 | 100 | 100 | 98 | 100 | kinase still bound, per cent of control (PKN1 (human)): 100%; kinase still bound, per cent of control (PKN2 (human)): 98%; kinase still bound, per cent of control (PLK3 (human)): 89%; kinase still bound, per cent of control (PTK2 (human)): 88%; kinase still bound, per cent of control (PTK2B (human)): 100%; kinase still bound, per cent of control (RET (human)): 100%; kinase still bound, per cent of control (RIOK1 (human)): 100%; kinase still bound, per cent of control (RIPK1 (human)): 100%; kinase still bound, per cent of control (RIPK4 (human)): 99%; kinase still bound, per cent of control (RPS6KA2 KD1 (human)): 97%; kinase still bound, per cent of control (RPS6KA2 KD2 (human)): 98%; kinase still bound, per cent of control (SRC (human)): 100%; kinase still bound, per cent of control (STK16 (human)): 77%; kinase still bound, per cent of control (STK24 (human)): 100%; kinase still bound, per cent of control (STK25 (human)): 76%; kinase still bound, per cent of control (STK36 (human)): 100%; kinase still bound, per cent of control (SYK (human)): 100%; kinase still bound, per cent of control (TAOK1 (human)): 59%; kinase still bound, per cent of control (TXK (human)): 90%
